Data taken from patent publication US5310726A, “Lipopeptide compounds” (Merck & Co., Inc., priority 1990, dated 1994).

Columns and labels:
Candida albicans = test: Microdilution broth assay, minimum fungicidal concentration; format: cell-based
Source text: (§1) The usefulness of the compounds as antifungal agents particularly, for the treatment of mycotic infections may be illustrated with minimum fungicidal concentration (MFC) results with Compound IA in tests against Candida albicans, Candida tropicalis and Candida parapsilosis.
(§2) The activity may be seen in a microdilution broth assay employing Yeast Nitrogen Base (Difco) with 10% dextrose (YNBD) as the medium. In carrying out the assay, Compound Ia was solubilized in 10 percent dimethyl sulfoxide (DMSO) and diluted to 2560 μg/ml. The compounds were then diluted to 256 μg/ml in YNBD. 0.15 ml of the suspension was dispensed to the top row of a 96-well plate (each well containing 0.15 ml of YNDB) resulting in a drug concentration of 128 μg/ml. Two-fold dilutions were then made from the top row to obtain final drug concentrations ranging from 128 to 0.06 μg/ml.
(§3) The yeast cultures, maintained on Sabouraud dextrose agar were transferred to YM broth (Difco) and incubated overnight at 35° C. with shaking (250 rpm). After incubation, each culture was diluted in sterile water to yield a final concentration of 1-5×10^6 colony forming units (CFU)/ml.
(§4) 96-well microplates were inoculated using a MIC-2000 (Dynatech) which delivers […] per well yielding a final inoculum per well of 1.5-7.5×10^3 cells. The microplates were incubated at 35° C. for 24 hours. The minimum inhibitory concentrations (MICS) were recorded as the lowest concentrations of drug showing no visible growth.
(§5) After recording the MIC, the plates were shaken to resuspend the cells. Thereafter, […] samples from the wells in the 96-well microplate were transferred to a single well tray containing Sabouraud dextrose agar. The inoculated trays were incubated 24 hours at 28° C. and then read. The MFC is defined as the lowest concentration of drug showing no growth or less than 4 colonies per spot.

Candida parapsilosis = test: as above; format: cell-based
Source text: as §1, §2, §3, §4, §5

Candida tropicalis = test: as above; format: cell-based; conditions: Candida tropicalis MY 1012
Method: The usefulness of the compounds as antifungal agents particularly, for the treatment of mycotic infections may be illustrated with minimum fungicidal concentration (MFC) results with Compound IA in tests against Candida albicans, Candida tropicalis and Candida parapsilosis. The activity may be seen in a microdilution broth assay employing Yeast Nitrogen Base (Difco) with 10% dextrose (YNBD) as the medium. […] The compounds were then diluted to 256 μg/ml in YNBD. 0.15 ml of the suspension was dispensed to the top row of a 96-well plate (each well containing 0.15 ml of YNDB) resulting in a drug concentration of 128 μg/ml. Two-fold dilutions were then made from the top row to obtain final drug concentrations ranging from 128 to 0.06 μg/ml. The yeast cultures, maintained on Sabouraud dextrose agar were transferred to YM broth (Difco) and incubated overnight at 35° C. with shaking (250 rpm). After incubation, each culture was diluted in sterile water to yield a final concentration of 1-5×10^6 colony forming units (CFU)/ml. 96-well microplates were inoculated using a MIC-2000 (Dynatech) which delivers […] per well yielding a final inoculum per well of 1.5-7.5×10^3 cells. […] The minimum inhibitory concentrations (MICS) were recorded as the lowest concentrations of drug showing no visible growth. […] The inoculated trays were incubated 24 hours at 28° C. and then read. […]

[1] = Stability in aqueous media; format: physicochemical; conditions: physiological pH range

Substance	Minimum Fungicidal Concentration (Candida albicans; Candida albicans MY 1028)	Minimum Fungicidal Concentration (Candida albicans; Candida albicans MY 1055)	Minimum Fungicidal Concentration (Candida albicans; Candida albicans MY 1208)	Minimum Fungicidal Concentration (Candida albicans; Candida albicans MY 1585)	Minimum Fungicidal Concentration (Candida albicans; Candida albicans MY 1750)	Minimum Fungicidal Concentration (Candida albicans; Candida albicans MY 1783)	Minimum Fungicidal Concentration (Candida parapsilosis; Candida parapsilosis MY 1008)	Minimum Fungicidal Concentration (Candida parapsilosis; Candida parapsilosis MY 1010)	Minimum Fungicidal Concentration (Candida tropicalis)	stability in aqueous medium [1]
1-[4-hydroxy-N^2 -(10,12-dimethyl-1-oxo-tetradecyl)ornithine]-4-[3-hydroxy-homotyrosine]-5- [3-hydroxy-glutamine]echinocandin B [Compound Ia]	0.5 µg/mL	1 µg/mL	2 µg/mL	0.25 µg/mL	0.25 µg/mL	0.5 µg/mL	8 µg/mL	4 µg/mL	1 µg/mL	exhibit the stability in aqueous medium desired
1-[4-hydroxy-N^2 -(10,12-dimethyl-1-oxo-tetradecyl)ornithine]-5-[3-hydroxy-glutamine]echino candin B [Compound Ib]										exhibit the stability in aqueous medium desired
